For the data set the following is noted: 101.33 kPa, Liquid, Vibrating tube method.

Drawing on the NIST ThermoML archive (doi:10.1021/je200373q), this text covers mass density for two molecules.

As a reminder, the mass density is mass per unit of volume.

± gives the expanded uncertainty stated by the source.

For the molecule `CCCCCCCCC` [nonane], the mass density was 732.83 ± 0.25 kg/m3 (273.15 K); 729.01 ± 0.25 kg/m3 (278.15 K); 725.16 ± 0.25 kg/m3 (283.15 K); 721.32 ± 0.25 kg/m3 (288.15 K); 717.45 ± 0.25 kg/m3 (293.15 K); 713.58 ± 0.25 kg/m3 (298.15 K). Besides, the mass density (303.15 K) was 709.69 ± 0.25 kg/m3; the mass density (308.15 K) stood at 705.78 ± 0.25 kg/m3; the mass density (313.15 K) came out at 701.86 ± 0.25 kg/m3; the mass density (318.15 K) was found to be 697.91 ± 0.25 kg/m3; the mass density (323.15 K) is given as 693.95 ± 0.25 kg/m3; the mass density (328.15 K) was 689.97 ± 0.25 kg/m3. For the same molecule, the mass density runs as follows: (333.15 K) 685.97 ± 0.25 kg/m3; (338.15 K) 681.94 ± 0.25 kg/m3; (343.15 K) 677.88 ± 0.25 kg/m3; (348.15 K) 673.91 ± 0.25 kg/m3; (353.15 K) 669.71 ± 0.26 kg/m3; (358.15 K) 665.58 ± 0.26 kg/m3. In addition, the mass density (363.15 K) turned out to be 661.14 ± 0.26 kg/m3.
As for `CCCCCCCC` [octane], the mass density by setting is: (273.15 K) 718.25 ± 0.25 kg/m3; (278.15 K) 714.31 ± 0.25 kg/m3; (283.15 K) 710.34 ± 0.25 kg/m3; (288.15 K) 706.35 ± 0.25 kg/m3; (293.15 K) 702.35 ± 0.25 kg/m3; (298.15 K) 698.34 ± 0.25 kg/m3. The mass density runs as follows: (303.15 K) 694.3 ± 0.25 kg/m3; (308.15 K) 690.24 ± 0.25 kg/m3; (313.15 K) 686.17 ± 0.25 kg/m3; (318.15 K) 682.06 ± 0.25 kg/m3; (323.15 K) 677.94 ± 0.25 kg/m3; (328.15 K) 673.79 ± 0.25 kg/m3. Moreover, the mass density is given as 669.61 ± 0.26 kg/m3 (333.15 K); 665.4 ± 0.26 kg/m3 (338.15 K); 661.16 ± 0.26 kg/m3 (343.15 K); 656.88 ± 0.26 kg/m3 (348.15 K); 652.57 ± 0.26 kg/m3 (353.15 K); 648.23 ± 0.26 kg/m3 (358.15 K). Moreover, the mass density (363.15 K) is on record as 643.83 ± 0.26 kg/m3.
